# Measured values reported in publication PMC10101059, “Rational Design of Stapled Antimicrobial Peptides to Enhance Stability and In Vivo Potency against Polymicrobial Sepsis” (Microbiology Spectrum, 2023).
# Like-named read-outs stand apart in the source and are kept apart here. Bridge positions count the residues as written; N and C are the ends. Square brackets hold non-standard residues; d marks the D form. Peptide text beside a SMILES is read from it. R5 = C=CCCC[C@@](C)(N)C(=O)O
# Experiments:
# [1] = test system: Enterobacter aerogenes; assay: microbe, parasite or virus in culture; assay type: cell-based; details: MHB medium
# Description: (§1) The antimicrobial assay was performed according to a modified National Committee for Clinical Laboratory Standards (NCCLS) protocol ([41], [42]). Briefly, 5 × 10^5 CFU/mL bacterial cells were treated with various peptide concentrations and incubated at 37 ± 2°C for 16 to 20 h. The lowest concentration with clear wells was recorded as the MIC for each test molecule. The clear wells were further plated in Mueller-Hinton agar (MHA) plates, followed by incubation overnight at 37 ± 2°C. After plating, the lowest concentration at which no growth was observed was recorded as the MBC. For the serum sensitivity assay, the antimicrobial activity of the peptides was tested in medium containing 50% human serum ([43], [44]).
# [2] = test system: Escherichia coli; assay: microbe, parasite or virus in culture; assay type: cell-based
# Description: as §1
# [3] = test system: NDM-1 Klebsiella pneumoniae; assay: microbe, parasite or virus in culture; assay type: cell-based
# Description: as §1
# [4] = test system: Pseudomonas aeruginosa; assay: microbe, parasite or virus in culture; assay type: cell-based
# Description: as §1
# [5] = test system: Salmonella enterica; assay: microbe, parasite or virus in culture; assay type: cell-based; details: MHB medium
# Description: as §1
# [6] = test system: MDR A. baumannii 1019; assay: microbe, parasite or virus in culture; assay type: cell-based, Acinetobacter baumannii
# Description: as §1
# [7] = test system: MDR A. baumannii 1033; assay: microbe, parasite or virus in culture; assay type: cell-based, Acinetobacter baumannii; details: for MBC: read-out: MBC; for MIC: read-out: MIC
# Description: as §1
# [8] = test system: MDR A. baumannii 14B0091; assay: microbe, parasite or virus in culture; assay type: cell-based, Acinetobacter baumannii
# Description: as §1
# [9] = test system: MDR A. baumannii 1607; assay: microbe, parasite or virus in culture; assay type: cell-based, Acinetobacter baumannii
# Description: as §1
# [10] = test system: MDR A. baumannii 1702; assay: microbe, parasite or virus in culture; assay type: cell-based, Acinetobacter baumannii; details: for MBC: read-out: MBC; for MIC: read-out: MIC
# Description: as §1
# [11] = test system: MDR A. baumannii 2088; assay: microbe, parasite or virus in culture; assay type: cell-based, Acinetobacter baumannii
# Description: as §1
# [12] = test system: MDR A. baumannii 2962; assay: microbe, parasite or virus in culture; assay type: cell-based, Acinetobacter baumannii
# Description: as §1
# [13] = test system: MDR A. baumannii 2982; assay: microbe, parasite or virus in culture; assay type: cell-based, Acinetobacter baumannii
# Description: as §1
# [14] = test system: MDR A. baumannii 2997; assay: microbe, parasite or virus in culture; assay type: cell-based, Acinetobacter baumannii; details: for MBC: read-out: MBC; for MIC: read-out: MIC
# Description: as §1
# [15] = test system: MDR A. baumannii 2998; assay: microbe, parasite or virus in culture; assay type: cell-based, Acinetobacter baumannii
# Description: as §1
# [16] = test system: MDR A. baumannii 3618; assay: microbe, parasite or virus in culture; assay type: cell-based, Acinetobacter baumannii
# Description: as §1
# [17] = test system: MDR A. baumannii 921; assay: microbe, parasite or virus in culture; assay type: cell-based, Acinetobacter baumannii
# Description: as §1
# [18] = test system: Staphylococcus aureus; assay type: cell-based
# Description: as §1
# [19] = test system: Acinetobacter baumannii; assay: microbe, parasite or virus in culture; assay type: cell-based; details: for MBC: read-out: MBC; for MIC: read-out: MIC
# Description: as §1, with “[44]). The antimicrobial assay was performed in the presence of physiological ions and glucose. The test media were supplemented with MgCl2 (1 mM), CaCl2 (2 mM), NaCl (150 mM), KCl (4.5 mM), NH4Cl (6 μM) ([45], [46]), or glucose (0.2%) ([47]), followed by routine antimicrobial assay as described previously. For the pH sensitivity assay, the antimicrobial assay was performed in media adjusted to pH values ranging from 4 to 12. To estimate the effects of temperature on antimicrobial activity, the peptide was incubated for 1 h at temperatures ranging from 40 to 100°C ([48]), followed by the antimicrobial assay as described above.” for “[44]).”
# [20] = test system: human red blood cells; assay type: cell-based
# Description: The hemolytic assay was performed after approval from the institutional ethics committee (Academia Sinica Institutional Review Board [IRB]; ID no. AS-IRB02-111075). Blood was collected from healthy humans, and 50 μL of a 2% blood cell suspension in normal saline was treated with an equal volume of peptide at different concentrations. The mixture was then incubated at 37 ± 2°C for 1 h. Next, the cell suspension was centrifuged at 1,000 × g for 10 min. Percent hemolysis was estimated by the absorbance of treated and control supernatant samples at 540 nm ([23], [44]).
# [21] = HS, 50% human serum containing MHB medium
# [22] = HS, MH medium containing 50% human serum
# [23] = HS, MH medium containing 50% human serum, read-out: MBC
smiles,measurement,setting,value
CC[C@H](C)[C@H](NC(=O)[C@H](CCCCN)NC(=O)[C@H](CCC(=O)O)NC(=O)[C@H](CCCCN)NC(=O)[C@H](CO)NC(=O)[C@H](CCCCN)NC(=O)[C@H](CCCNC(=N)N)NC(=O)[C@H](Cc1ccccc1)NC(=O)[C@H](Cc1ccccc1)NC(=O)[C@H](CC(=O)O)NC(=O)CNC(=O)[C@H](CC(C)C)NC(=O)[C@@H](N)CC(C)C)C(=O)NCC(=O)N[C@@H](CCCCN)C(=O)N[C@@H](CCC(=O)O)C(=O)N[C@@H](Cc1ccccc1)C(=O)N[C@@H](CCCCN)C(=O)N[C@@H](CCCNC(=N)N)C(=O)N[C@H](C(=O)N[C@H](C(=O)N[C@@H](CCC(N)=O)C(=O)N[C@@H](CCCNC(=N)N)C(=O)N[C@H](C(=O)N[C@@H](CCCCN)C(=O)N[C@@H](CC(=O)O)C(=O)N[C@@H](Cc1ccccc1)C(=O)N[C@@H](CC(C)C)C(=O)N[C@@H](CCCNC(=N)N)C(=O)N[C@@H](CC(N)=O)C(=O)N[C@@H](CC(C)C)C(=O)N[C@H](C(=O)N1CCC[C@H]1C(=O)N[C@@H](CCCNC(=N)N)C(=O)N[C@H](C(=O)N[C@@H](CCC(=O)O)C(=O)N[C@@H](CO)C(=O)O)[C@@H](C)O)C(C)C)[C@@H](C)CC)C(C)C)[C@@H](C)CC [LL-37],MBC,[1],6.25 µM
same,MIC,[1],6.25 µM
same,MBC,[2]; [21],>25 µM
same,MIC,[2]; [21],>25 µM
same,MBC,[2]; MHB medium,6.25 µM
same,MIC,[2]; MHB medium,6.25 µM
same,MBC,[3]; [21],>25 µM
same,MIC,[3]; [21],>25 µM
same,MBC,[3]; MHB medium,25 µM
same,MIC,[3]; MHB medium,25 µM
same,MBC,"[4]; HS, 50% human serum containing MHB medium, read-out: MBC",>25 µM
same,MIC,"[4]; HS, 50% human serum containing MHB medium, read-out: MIC",>25 µM
same,MBC,[4]; MHB medium,6.25−12.5 μM
same,MIC,[4]; MHB medium,6.25−12.5 μM
same,MBC,[5],>25 µM
same,MIC,[5],>25 µM
same,MBC,[6]; [22],>25 µM
same,MIC,[6]; [22],>25 µM
same,MBC,[6]; MHB medium,6.25 µM
same,MIC,[6]; MHB medium,6.25 µM
same,MBC,[7]; [22],>25 µM
same,MIC,[7]; [22],>25 µM
same,MBC,[7]; MHB medium,6.25 µM
same,MIC,[7]; MHB medium,6.25 µM
same,MBC,[8]; [22],>25 µM
same,MIC,[8]; [22],>25 µM
same,MBC,[8]; MHB medium,3.13 µM
same,MIC,[8]; MHB medium,3.13 µM
same,MIC,[9]; [22],>25 µM
same,MBC,[9]; [23],>25 µM
same,MBC,[9]; MHB medium,3.13 to 6.25 µM
same,MIC,[9]; MHB medium,3.13 µM
same,MBC,[10]; [22],>25 µM
same,MIC,[10]; [22],>25 µM
same,MBC,[10]; MHB medium,3.13 µM
same,MIC,[10]; MHB medium,3.13 µM
same,MBC,[11]; [23],>25 µM
same,MIC,"[11]; HS, MH medium containing 50% human serum, read-out: MIC",>25 µM
same,MBC,[11]; MHB medium,3.13 to 6.25 µM
same,MIC,[11]; MHB medium,3.13 to 6.25 µM
same,MBC,[12]; [22],>25 µM
same,MIC,[12]; [22],>25 µM
same,MBC,[12]; MHB medium,6.25 µM
same,MIC,[12]; MHB medium,6.25 µM
same,MBC,[13]; [22],>25 µM
same,MIC,[13]; [22],>25 µM
same,MBC,[13]; MHB medium,12.5 µM
same,MIC,[13]; MHB medium,6.25 µM
same,MBC,[14]; [22],>25 µM
same,MIC,[14]; [22],>25 µM
same,MBC,[14]; MHB medium,1.56 µM
same,MIC,[14]; MHB medium,1.56 µM
same,MIC,[15]; [22],>25 µM
same,MBC,[15]; [23],>25 µM
same,MBC,[15]; MHB medium,6.25 to 12.5 µM
same,MIC,[15]; MHB medium,6.25 µM
same,MBC,[16]; [22],>25 µM
same,MIC,[16]; [22],>25 µM
same,MBC,[16]; MHB medium,3.13 µM
same,MIC,[16]; MHB medium,3.13 µM
same,MBC,[17]; [22],>25 µM
same,MIC,[17]; [22],>25 µM
same,MBC,[17]; MHB medium,6.25 µM
same,MIC,[17]; MHB medium,6.25 µM
"CC[C@H](C)[C@H](NC(=O)[C@@H](NC(=O)[C@@H](NC(=O)[C@@H](N)Cc1ccccc1)[C@@H](C)CC)[C@@H](C)CC)C(=O)N[C@@H](CCCCN)C(=O)N[C@@H](CCCCN)C(=O)N[C@@H](CO)C(=O)NCC(=O)NCC(=O)N[C@@H](CC(C)C)C(=O)N[C@]1(C)CCCC=CCCC[C@](C)(C(=O)NCC(=O)N[C@@H](C)C(=O)N[C@]2(C)CCCC=CCCC[C@](C)(C(=O)N[C@H](C(=O)N[C@@H](CCCCN)C(=O)N[C@@H](CCCCN)C(=O)O)[C@@H](C)CC)NC(=O)[C@H](CCCCN)NC(=O)[C@H](CCCCN)NC(=O)[C@H](CCCCN)NC2=O)NC(=O)[C@H](CCCCN)NC(=O)[C@H](CCCCN)NC(=O)[C@H](CCCCN)NC1=O [TP4-2] (H-FIIIKKSGGL[R5]KKK[R5]GA[R5]KKK[R5]IKK-OH; staple 11-15, 18-22; N-terminus and C-terminus assumed)",MBC,[18],>25 µM
same,MIC,[18],>25 µM
same,MBC,[19],12.5 µM
same,MIC,[19],12.5 µM
same,15% hemolysis concn,[20],>100 µM
"CC[C@H](C)[C@H](NC(=O)[C@@H](NC(=O)[C@@H](N)Cc1ccccc1)[C@@H](C)CC)C(=O)N[C@]1(C)CCCC=CCCC[C@](C)(C(=O)NCC(=O)N[C@@H](CC(C)C)C(=O)N[C@]2(C)CCCC=CCCC[C@](C)(C(=O)NCC(=O)N[C@@H](C)C(=O)N[C@]3(C)CCCC=CCCC[C@](C)(C(=O)N[C@H](C(=O)N[C@@H](CCCCN)C(=O)N[C@@H](CCCCN)C(=O)O)[C@@H](C)CC)NC(=O)[C@H](CCCCN)NC(=O)[C@H](CCCCN)NC(=O)[C@H](CCCCN)NC3=O)NC(=O)[C@H](CCCCN)NC(=O)[C@H](CCCCN)NC(=O)[C@H](CCCCN)NC2=O)NC(=O)[C@H](CO)NC(=O)[C@H](CCCCN)NC(=O)[C@H](CCCCN)NC1=O [TP4-4] (H-FII[R5]KKS[R5]GL[R5]KKK[R5]GA[R5]KKK[R5]IKK-OH; staple 4-8, 11-15, 18-22; N-terminus and C-terminus assumed)",MBC,[18],>25 µM
same,MIC,[18],>25 µM
same,MBC,[19],12.5 µM
same,MIC,[19],12.5 µM
same,15% hemolysis concn,[20],>100 µM
